In article doi:10.1101/2025.10.21.683780 (bioRxiv, 2025):

Key:
[1] = molecular target: T1, OATP1B3 (Homo sapiens, UniProt Q9NPD5); format: cell-based; conditions: hek293 cells
T1 construct: gene SLCO1B3
T1 sequence (Q9NPD5 1-702): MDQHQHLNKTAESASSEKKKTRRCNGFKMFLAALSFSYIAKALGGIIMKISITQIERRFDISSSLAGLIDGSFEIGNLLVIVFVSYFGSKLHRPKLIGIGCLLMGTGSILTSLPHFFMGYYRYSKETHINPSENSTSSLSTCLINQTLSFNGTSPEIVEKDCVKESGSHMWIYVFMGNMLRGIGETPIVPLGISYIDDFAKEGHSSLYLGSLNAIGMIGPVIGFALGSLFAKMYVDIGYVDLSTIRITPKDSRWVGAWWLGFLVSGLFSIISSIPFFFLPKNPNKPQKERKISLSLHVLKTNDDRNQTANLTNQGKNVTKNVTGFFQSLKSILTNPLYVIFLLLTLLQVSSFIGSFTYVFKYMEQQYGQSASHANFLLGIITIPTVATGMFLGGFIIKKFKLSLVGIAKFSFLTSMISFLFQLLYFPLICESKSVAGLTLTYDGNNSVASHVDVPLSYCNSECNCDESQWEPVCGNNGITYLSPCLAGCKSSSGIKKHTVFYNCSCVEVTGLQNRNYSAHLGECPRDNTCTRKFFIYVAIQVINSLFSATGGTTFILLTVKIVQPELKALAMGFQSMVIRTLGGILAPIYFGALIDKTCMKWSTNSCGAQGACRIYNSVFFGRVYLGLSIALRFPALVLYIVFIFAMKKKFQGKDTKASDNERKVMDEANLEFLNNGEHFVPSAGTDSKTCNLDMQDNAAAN

[2] = molecular target: T2, OAT4 (Homo sapiens, UniProt Q9NSA0); test: inhibition of methotrexate uptake in OAT4-expressing HEK293 cells; also transported; format: cell-based; conditions: read-out: Dicloxacillin / IC50 (95% CI)
T2 construct: gene SLC22A11
T2 sequence (Q9NSA0 1-550): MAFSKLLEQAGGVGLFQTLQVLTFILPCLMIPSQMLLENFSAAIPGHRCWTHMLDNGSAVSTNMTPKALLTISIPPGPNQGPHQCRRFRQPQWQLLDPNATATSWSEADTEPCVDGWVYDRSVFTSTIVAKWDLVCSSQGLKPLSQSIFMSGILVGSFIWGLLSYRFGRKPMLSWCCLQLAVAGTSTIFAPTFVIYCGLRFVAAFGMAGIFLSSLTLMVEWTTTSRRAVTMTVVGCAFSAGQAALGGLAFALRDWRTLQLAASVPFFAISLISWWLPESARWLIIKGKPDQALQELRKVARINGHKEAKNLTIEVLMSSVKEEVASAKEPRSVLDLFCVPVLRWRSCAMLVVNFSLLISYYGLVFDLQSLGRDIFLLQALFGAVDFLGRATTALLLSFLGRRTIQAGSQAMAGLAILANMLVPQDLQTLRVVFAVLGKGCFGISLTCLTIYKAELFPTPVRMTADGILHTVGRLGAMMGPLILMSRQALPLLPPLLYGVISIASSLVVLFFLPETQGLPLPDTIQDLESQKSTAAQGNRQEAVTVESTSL

Cc1onc(-c2c(Cl)cccc2Cl)c1C(=O)N[C@@H]1C(=O)N2[C@@H]1SC(C)(C)[C@@H]2C(=O)O [dicloxacillin]
IC50 [1]: 6.68 µM | IC50 [2]: 7.23 µM
